This is an account of results in ChEMBL document CHEMBL5131514, “Structure and Mechanism-Guided Design of Dual Serine/Metallo-Carbapenemase Inhibitors” (J Med Chem, 2022).

Assay [1] can be described thus: Inhibition of bacterial beta-lactamase CTX-M-15 using nitrocefin as substrate incubated for 10 mins and measured every 10 seconds for 10 mins. Also on record: species or system Bacteria.
Assay [2] is described as follows: Inhibition of bacterial beta-lactamase KPC-2 using nitrocefin as substrate incubated for 10 mins and measured every 10 seconds for 10 mins. More on the design: species or system Bacteria.
A short description of assay [3]: Inhibition of bacterial beta-lactamase TEM-10 using nitrocefin as substrate incubated for 10 mins and measured every 10 seconds for 10 mins. Also on record: species or system Bacteria.
Assay [4] in a line: Inhibition of bacterial beta-lactamase VIM-1 using nitrocefin as substrate incubated for 10 mins followed by substrate addition measured every 10 seconds for 10 mins. More on the design: species or system Bacteria.
Assay [5] can be described thus: Inhibition of bacterial beta-lactamase OXA-48 using nitrocefin as substrate incubated for 10 mins and measured every 10 seconds for 10 mins. More on the design: species or system Bacteria.
Assay [6] is described as follows: Inhibition of bacterial beta-lactamase SHV-12 using nitrocefin as substrate incubated for 10 mins and measured every 10 seconds for 10 mins. More on the design: species or system Bacteria.
The nature of assay [7]: Inhibition of bacterial beta-lactamase P99 using nitrocefin as substrate incubated for 10 mins and measured every 10 seconds for 10 mins. More on the design: species or system Bacteria.
Assay [8] is described as follows: Inhibition of bacterial beta-lactamase IMP-1 using imipenem as substrate incubated for 10 mins followed by substrate addition measured every 30 seconds for 1 hr. More on the design: species or system Bacteria.
Assay [9] is described as follows: Binding affinity to recombinant full-length bacterial beta-lactamase KPC-2 assessed as inhibition constant using nitrocefin as substrate by spectrophotometric assay. More on the design: species or system Bacteria.
Assay [10] can be described thus: Binding affinity to Pseudomonas aeruginosa beta-lactamase IMP-1 expressed in Escherichia coli Lemo21(DE3) assessed as inhibition constant using nitrocefin as substrate by spectrophotometric assay.
Assay [11] is described as follows: Binding affinity to bacterial beta-lactamase VIM-1 expressed in Escherichia coli BL21 (DE3) assessed as inhibition constant using nitrocefin as substrate by spectrophotometric assay. Also on record: species or system Bacteria.
Assay [12] deals with Bacteria. Briefly: Inhibition of bacterial beta-lactamase KPC-2 at 200 uM using CENTA substrate by colorimetric assay relative to control.
The subject of assay [13] is Bacteria. Put plainly: Inhibition of recombinant bacterial beta-lactamase VIM-2 (26 to 266 residues) expressed in Escherichia coli Lemo21(DE3) at 200 uM using CENTA substrate by colorimetric assay relative to control.
The subject of assay [14] is Bacteria. Put plainly: Inhibition of bacterial beta-lactamase CTX-M-15 at 200 uM CENTA substrate by colorimetric assay relative to control.
The subject of assay [15] is Bacteria. Briefly: Inhibition of bacterial beta-lactamase AmpC at 200 uM using CENTA substrate by colorimetric assay relative to control.
The test system of assay [16] is Bacteria. Briefly: Inhibition of recombinant bacterial beta-lactamase […] (28 to 270 residues) at 200 uM using CENTA substrate by colorimetric assay relative to control.
Assay [17] in a line: Inhibition of bacterial beta-lactamase KPC-2 expressed in Escherichia coli BL21 (DE3) assessed as inhibition constant using nitrocefin as substrate by microplate reader analysis. More on the design: species or system Bacteria.
A short description of assay [18]: Inhibition of bacterial beta-lactamase NDM-1 (42 to 270 residues) expressed in Escherichia coli BL21 (DE3) assessed as inhibition constant using nitrocefin as substrate by microplate reader analysis. More on the design: species or system Bacteria.
Assay [19] is described as follows: Inhibition of bacterial beta-lactamase CTX-M-15 assessed as inhibition constant using cephalothin as substrate by spectrophotometric assay. Also on record: species or system Bacteria.
A short description of assay [20]: Inhibition of recombinant bacterial beta-lactamase […] (28 to 270 residues) assessed as inhibition constant using imipenem as substrate by spectrophotometric assay. Also on record: species or system Bacteria.
Assay [21] is described as follows: Inhibition of recombinant bacterial beta-lactamase VIM-2 MBL (27 to 266 residues) expressed in Escherichia coli Transetta (DE3) using FC-1 as substrate preincubated for 10 mins followed by substrate addition measured every 60 secs by fluorescence based assay. More on the design: species or system Bacteria.
Assay [22] can be described thus: Inhibition of recombinant bacterial beta-lactamase NDM-1 MBL (1 to 270 residues) expressed in Escherichia coli Transetta (DE3) using FC-1 as substrate preincubated for 10 mins followed by substrate addition measured every 60 secs by fluorescence based assay. Also on record: species or system Bacteria.
Assay [23] is described as follows: Inhibition of recombinant bacterial beta-lactamase TEM-1 SBL (24 to 286 residues) expressed in Escherichia coli Transetta (DE3) using FC-1 as substrate preincubated for 4 hrs followed by substrate addition measured every 60 secs by fluorescence based assay. More on the design: species or system Bacteria.

Consider `O=C(O)c1c(F)ccc2c1OB(O)[C@@H]1C[C@H]21` [XERUBORBACTAM], for which the half-inhibitory concentration (IC50) – broadly, the concentration that gives 50% inhibition – in [1] is 0.0012 µM; in assay [2], 0.0029 µM; in [3] it was 0.0022 µM; in assay [4], 0.014 µM; in assay [5] it was 0.0011 µM; in [6] it was 0.0019 µM. Also, the half-inhibitory concentration (IC50) in assay [7] is 0.022 µM; in assay [8] it was 0.61 µM.
In the case of `Sc1nncn1/N=C/c1ccc(Br)cc1`, the Ki (commonly the equilibrium dissociation constant of an inhibitor or competing ligand from its target) in [9] amounted to 158 µM; in [10], 285 µM; in [11], 58 µM.
In the case of `O=C(NC(=S)NNC(=O)c1cccs1)c1ccc(Br)o1`, the inhibition – broadly, the drop in the measured response relative to a control, in per cent – in [12] is 66%; in assay [13], 45%; in assay [14], 55%; in assay [15], 32%; in assay [16] it was 79%.
Consider `O=C(Nc1nnn[nH]1)C(Nc1ccccc1)c1ccccc1` (centres undefined), for which the figures for the Ki in assay [17] and in assay [18] were 479 µM and 477 µM, respectively.
Consider `S=C(N/N=C/c1ccccc1)N1CCOCC1`, for which the inhibition turned out to be 41% in assay [12]; 33% in assay [13]; 32% in assay [14]; 50% in [15]; 71% in assay [16]. The Ki in assay [19] came to 50 µM; in [20], 32 µM.
Consider `O=P(O)(O)C(c1cc2ccccc2n1-c1ncccn1)P(=O)(O)O`, for which the 50% inhibitory concentration (IC50) in [21] was determined as 5.58 µM; in assay [22] it was 15 µM; in assay [23], 11.5 µM.
In the case of `CCn1c(S)nnc1-c1nn(C)c(C)c1Cl`, the inhibition was less than 20% in [12]; 86% in assay [13]; less than 20% in assay [14]; 37% in [15]; 70% in [16].
Consider `CCN(CC)c1ccc(CNn2cn[nH]c2=S)cc1`, for which the inhibition constant Ki in assay [9] was found to be 263 µM; in [10], 173 µM; in [11], 224 µM.
In the case of `Sc1nnc(-c2cccnc2)n1CC1CCCO1` (centres undefined), the inhibition in [12] was less than 20%; in assay [13], 87%; in assay [14] it was 33%; in [15], less than 20%; in assay [16], 54%.
Consider `Sc1nnc(-c2ccco2)n1C1CC1`, for which the inhibition in assay [12] is 46%; in assay [13] it was 81%; in assay [14], 49%; in assay [15], less than 20%; in [16], 62%.
Turning to `O=C(Nc1nnn[nH]1)c1cc(-c2ccccc2)n(-c2ccccc2)n1`, the Ki in [17] was 239 µM; in [18], 56 µM.
Take `O=C(Nc1nnn[nH]1)C(c1ccccc1)[S+]([O-])c1ccccc1` (centres undefined): the Ki in assay [17] came to 1570 µM; in assay [18] it was 204 µM.
Take `S=c1[nH]ncn1NCc1ccc2c(c1)OCO2`: the results for the inhibition constant Ki in assay [9], in assay [10] and in assay [11] were 138 µM, 125 µM and 120 µM, respectively.
For the compound `S=c1[nH]ncn1/N=C/c1c[nH]c2ccccc12`, the inhibition constant Ki came to 139 µM in assay [9], 104 µM in assay [10] and 95 µM in assay [11].
As to `O=P(O)(O)C(c1ccccc1-c1ccccn1)P(=O)(O)O`, the IC50 in assay [21] turned out to be 11.1 µM; in [22] it was 32 µM; in assay [23], 68.4 µM.
On to `O=C(Nc1nnn[nH]1)c1cc(-c2ccccc2)nn1-c1ccccc1`, for which the Ki in [17] was 44 µM; in [18], 62 µM.
Consider `O=P(O)(O)C(c1ccc2ccccc2c1-c1ccccn1)P(=O)(O)O`, for which the IC50 in [21] was determined as 3.78 µM; in assay [22], 17.1 µM; in assay [23], 1.73 µM.
